PubChem BioAssay (NCI)
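Grown in 96-well plates, cells were treated for 48 hours with each compound at five concentrations. Insufficient inhibition: endpoint recorded as highest concentration tested. TGI marks complete inhibition of growth.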

Columns and labels:
Experiment in all cases: NCI tumour cell line growth inhibition, 48 h
786-0 renal = tested on: 786-0 renal
A549 NSCLC = tested on: A549 NSCLC
ACHN renal = tested on: ACHN renal
BT-549 breast = tested on: BT-549 breast
CAKI-1 renal = tested on: CAKI-1 renal
CCRF-CEM leukemia = tested on: CCRF-CEM leukemia
COLO 205 colon = tested on: COLO 205 colon
DU-145 prostate = tested on: DU-145 prostate
EKVX NSCLC = tested on: EKVX NSCLC
HCC-2998 colon = tested on: HCC-2998 colon
HCT-116 colon = tested on: HCT-116 colon
HCT-15 colon = tested on: HCT-15 colon
HL-60(TB) leukemia = tested on: HL-60(TB) leukemia
HOP-62 NSCLC = tested on: HOP-62 NSCLC
HOP-92 NSCLC = tested on: HOP-92 NSCLC
HS 578T breast = tested on: HS 578T breast
HT29 colon = tested on: HT29 colon
IGROV1 ovarian = tested on: IGROV1 ovarian
K-562 leukemia = tested on: K-562 leukemia
KM12 colon = tested on: KM12 colon
LOX IMVI melanoma = tested on: LOX IMVI melanoma
M14 melanoma = tested on: M14 melanoma
MALME-3M melanoma = tested on: MALME-3M melanoma
MCF7 breast = tested on: MCF7 breast
MDA-MB-231 breast = tested on: MDA-MB-231 breast
MDA-MB-435 = tested on: MDA-MB-435
MDA-N = tested on: MDA-N
MOLT-4 leukemia = tested on: MOLT-4 leukemia
NCI-H226 lung = tested on: NCI-H226 lung
NCI-H23 lung = tested on: NCI-H23 lung
NCI-H460 lung = tested on: NCI-H460 lung
NCI-H522 lung = tested on: NCI-H522 lung
NCI/ADR-RES ovarian = tested on: NCI/ADR-RES ovarian
OVCAR-3 ovarian = tested on: OVCAR-3 ovarian
OVCAR-4 ovarian = tested on: OVCAR-4 ovarian
OVCAR-5 ovarian = tested on: OVCAR-5 ovarian
OVCAR-8 ovarian = tested on: OVCAR-8 ovarian
PC-3 prostate = tested on: PC-3 prostate
RPMI-8226 leukemia = tested on: RPMI-8226 leukemia
RXF 393 renal = tested on: RXF 393 renal
SF-268 CNS = tested on: SF-268 CNS
SF-295 CNS = tested on: SF-295 CNS
SF-539 CNS = tested on: SF-539 CNS
SK-MEL-2 melanoma = tested on: SK-MEL-2 melanoma
SK-MEL-28 melanoma = tested on: SK-MEL-28 melanoma
SK-MEL-5 melanoma = tested on: SK-MEL-5 melanoma
SK-OV-3 ovarian = tested on: SK-OV-3 ovarian
SN12C renal = tested on: SN12C renal
SNB-19 CNS = tested on: SNB-19 CNS
SNB-75 CNS = tested on: SNB-75 CNS
SR leukemia = tested on: SR leukemia
SW-620 colon = tested on: SW-620 colon
T-47D breast = tested on: T-47D breast
TK-10 renal = tested on: TK-10 renal
U251 CNS = tested on: U251 CNS
UACC-257 melanoma = tested on: UACC-257 melanoma
UACC-62 melanoma = tested on: UACC-62 melanoma
UO-31 renal = tested on: UO-31 renal

For `Cc1ccc(Nc2nc3ccccc3c(=O)n2N)cc1`, the TGI (786-0 renal) was > 100 µM, the TGI (A549 NSCLC) was > 100 µM and the TGI (ACHN renal) was > 100 µM. For the same compound, the TGI (BT-549 breast) was > 100 µM, the TGI (CAKI-1 renal) was > 100 µM and the TGI (CCRF-CEM leukemia) was > 100 µM. For the same compound, the TGI (COLO 205 colon) was > 100 µM, the TGI (DU-145 prostate) was > 100 µM and the TGI (EKVX NSCLC) was > 100 µM. For the same compound, the TGI (HCC-2998 colon) was > 100 µM, the TGI (HCT-116 colon) was > 100 µM and the TGI (HCT-15 colon) was > 100 µM. For the same compound, the TGI (HL-60(TB) leukemia) was > 100 µM, the TGI (HOP-62 NSCLC) was > 100 µM and the TGI (HOP-92 NSCLC) was > 100 µM. For the same compound, the TGI (HS 578T breast) was > 100 µM, the TGI (HT29 colon) was > 100 µM and the TGI (IGROV1 ovarian) was > 100 µM. For the same compound, the TGI (K-562 leukemia) was > 100 µM, the TGI (KM12 colon) was > 100 µM and the TGI (LOX IMVI melanoma) was > 100 µM. The TGI (M14 melanoma) was > 100 µM, the TGI (MALME-3M melanoma) was > 100 µM and the TGI (MCF7 breast) was > 100 µM. For the same compound, the TGI (MDA-MB-231 breast) was > 100 µM, the TGI (MDA-MB-435) was > 100 µM and the TGI (MDA-N) was > 100 µM. For the same compound, the TGI (MOLT-4 leukemia) was > 100 µM, the TGI (NCI-H226 lung) was > 100 µM and the TGI (NCI-H23 lung) was > 100 µM. The TGI (NCI-H460 lung) was > 100 µM, the TGI (NCI-H522 lung) was > 100 µM and the TGI (NCI/ADR-RES ovarian) was > 100 µM. For the same compound, the TGI (OVCAR-3 ovarian) was > 100 µM, the TGI (OVCAR-4 ovarian) was > 100 µM and the TGI (OVCAR-5 ovarian) was > 100 µM. The TGI (OVCAR-8 ovarian) was > 100 µM, the TGI (PC-3 prostate) was > 100 µM and the TGI (RPMI-8226 leukemia) was > 100 µM. For the same compound, the TGI (RXF 393 renal) was > 100 µM, the TGI (SF-268 CNS) was > 100 µM and the TGI (SF-295 CNS) was > 100 µM. The TGI (SF-539 CNS) was > 100 µM, the TGI (SK-MEL-2 melanoma) was > 100 µM and the TGI (SK-MEL-28 melanoma) was > 100 µM. For the same compound, the TGI (SK-MEL-5 melanoma) was > 100 µM, the TGI (SK-OV-3 ovarian) was > 100 µM and the TGI (SN12C renal) was > 100 µM. For the same compound, the TGI (SNB-19 CNS) was > 100 µM, the TGI (SNB-75 CNS) was > 100 µM and the TGI (SR leukemia) was > 100 µM. The TGI (SW-620 colon) was > 100 µM, the TGI (T-47D breast) was > 100 µM and the TGI (TK-10 renal) was > 100 µM. The TGI (U251 CNS) was > 100 µM, the TGI (UACC-257 melanoma) was > 100 µM and the TGI (UACC-62 melanoma) was > 100 µM. For the same compound, the TGI (UO-31 renal) was > 100 µM.

Compound `C[C@]12CC[C@H]3[C@@H](CCC4=C[C@@H](N5CCCC5)CC[C@@]43C)[C@@H]1C/C(=C\c1ccncc1)[C@@H]2O` has a TGI (786-0 renal) of 10.8 µM, a TGI (A549 NSCLC) of 29.1 µM and a TGI (ACHN renal) of 40.6 µM. The TGI (BT-549 breast) was 38.9 µM, the TGI (CAKI-1 renal) was > 100 µM and the TGI (CCRF-CEM leukemia) was > 100 µM. It also gave a TGI (COLO 205 colon) of 20.7 µM, a TGI (DU-145 prostate) of 39.5 µM and a TGI (EKVX NSCLC) of 49.6 µM. The TGI (HCC-2998 colon) was 18 µM, the TGI (HCT-116 colon) was 21.1 µM and the TGI (HCT-15 colon) was 26.2 µM. The TGI (HL-60(TB) leukemia) was 41.8 µM, the TGI (HOP-62 NSCLC) was 18.3 µM and the TGI (HOP-92 NSCLC) was 31.2 µM. It also gave a TGI (HS 578T breast) of 36.1 µM, a TGI (HT29 colon) of 11 µM and a TGI (IGROV1 ovarian) of 64.6 µM. The TGI (K-562 leukemia) was > 100 µM, the TGI (KM12 colon) was 31 µM and the TGI (LOX IMVI melanoma) was 21.4 µM. It also gave a TGI (M14 melanoma) of 5.66 µM, a TGI (MALME-3M melanoma) of 27.8 µM and a TGI (MCF7 breast) of 26.1 µM. It also gave a TGI (MDA-MB-231 breast) of 29.8 µM, a TGI (MDA-MB-435) of 27.1 µM and a TGI (MDA-N) of 24.9 µM. For the same compound, the TGI (MOLT-4 leukemia) was > 100 µM, the TGI (NCI-H226 lung) was 33.7 µM and the TGI (NCI-H23 lung) was 34.2 µM. The TGI (NCI-H460 lung) was 26.4 µM, the TGI (NCI-H522 lung) was 24.1 µM and the TGI (NCI/ADR-RES ovarian) was 43.9 µM. It also gave a TGI (OVCAR-3 ovarian) of 41.2 µM, a TGI (OVCAR-4 ovarian) of 75.8 µM and a TGI (OVCAR-5 ovarian) of 53.6 µM. The TGI (OVCAR-8 ovarian) was 63.5 µM, the TGI (PC-3 prostate) was 30.8 µM and the TGI (RPMI-8226 leukemia) was 28.5 µM. The TGI (RXF 393 renal) was 19 µM, the TGI (SF-268 CNS) was 41.8 µM and the TGI (SF-295 CNS) was 17.6 µM. For the same compound, the TGI (SF-539 CNS) was 28.1 µM, the TGI (SK-MEL-2 melanoma) was 30.9 µM and the TGI (SK-MEL-28 melanoma) was 24.2 µM. For the same compound, the TGI (SK-MEL-5 melanoma) was 25.2 µM, the TGI (SK-OV-3 ovarian) was 61.7 µM and the TGI (SN12C renal) was 28.5 µM. For the same compound, the TGI (SNB-19 CNS) was 30.1 µM, the TGI (SNB-75 CNS) was 42.2 µM and the TGI (SR leukemia) was 12.8 µM. It also gave a TGI (SW-620 colon) of 43.6 µM, a TGI (T-47D breast) of 65.8 µM and a TGI (TK-10 renal) of 26.5 µM. The TGI (U251 CNS) was 28.5 µM, the TGI (UACC-257 melanoma) was 18.7 µM and the TGI (UACC-62 melanoma) was 29.9 µM. The TGI (UO-31 renal) was 18.4 µM.
